According to the supplement of paper PMC10307832:

Legend:
Assay in all cases: relative viability (nuclei count vs DMSO), 5 days (fraction); higher = more cells survive
[1] = system: RERF-LC-KJ
How it was run: (§1)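 Medians of duplicate plates are given as relative viability. That measure is the nuclei count in treated wells divided by the count in vehicle wells. Counts were taken on 4× images of lung cancer cell lines in 1536-well plates, 5 days after pin-tool dosing the day after seeding with one drug alone or a fixed anchor-drug dose plus five library-drug doses (not always all listed) in √10 steps.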

[2] = system: NCI-H1755
How it was run: as §1

[3] = system: HOP-62
How it was run: as §1

[4] = system: A-427
How it was run: as §1

[5] = system: NCI-H647
How it was run: as §1

[6] = system: NCI-H2228
How it was run: as §1

[7] = system: NCI-H358
How it was run: as §1

[8] = system: LC-2-ad
How it was run: as §1

[9] = system: NCI-H1734
How it was run: as §1

[10] = system: NCI-H1915
How it was run: as §1

[11] = system: LXF-289
How it was run: as §1

[12] = system: PC-3 [JPC-3]
How it was run: as §1

[13] = system: NCI-H1792
How it was run: as §1

[14] = system: HCC-15
How it was run: as §1

[15] = system: SW 1573
How it was run: as §1

[16] = system: NCI-H2126
How it was run: as §1

[17] = system: SK-LU-1
How it was run: as §1

[18] = system: NCI-H2347
How it was run: as §1

[19] = system: HCC-78
How it was run: as §1

[20] = system: NCI-H1975
How it was run: as §1

`COc1nc(C)cnc1NS(=O)(=O)c1cccnc1-c1ccc(-c2nnco2)cc1` [Zibotentan] + CS(=O)(=O)N1CCN(Cc2cc3nc(-c4cccc5[nH]ncc45)nc(N4CCOCC4)c3s2)CC1 [Pictilisib] (partner 1 µM) showed a relative viability ([1]; first compound 0.08 µM) of 0.484, a relative viability ([1]; first compound 0.253 µM) of 0.704 and a relative viability ([1]; first compound 0.8 µM) of 0.593. The relative viability ([1]; first compound 2.53 µM) was 0.514, the relative viability ([2]; first compound 0.08 µM) was 0.444 and the relative viability ([2]; first compound 0.253 µM) was 0.461. It also gave a relative viability ([2]; first compound 0.8 µM) of 0.382, a relative viability ([2]; first compound 2.53 µM) of 0.47 and a relative viability ([3]; first compound 0.08 µM) of 0.687. For the same molecule, the relative viability ([3]; first compound 0.253 µM) was 0.769, the relative viability ([3]; first compound 0.8 µM) was 0.752 and the relative viability ([3]; first compound 2.53 µM) was 0.851. It also gave a relative viability ([4]; first compound 0.08 µM) of 0.909, a relative viability ([4]; first compound 0.253 µM) of 0.733 and a relative viability ([4]; first compound 0.8 µM) of 0.68. For the same molecule, the relative viability ([4]; first compound 2.53 µM) was 0.751, the relative viability ([5]; first compound 0.08 µM) was 0.391 and the relative viability ([5]; first compound 0.253 µM) was 0.355. The relative viability ([5]; first compound 0.8 µM) was 0.41, the relative viability ([5]; first compound 2.53 µM) was 0.388 and the relative viability ([6]; first compound 0.08 µM) was 0.45. For the same molecule, the relative viability ([6]; first compound 0.253 µM) was 0.438, the relative viability ([6]; first compound 0.8 µM) was 0.355 and the relative viability ([6]; first compound 2.53 µM) was 0.317. It also gave a relative viability ([7]; first compound 0.08 µM) of 0.318, a relative viability ([7]; first compound 0.8 µM) of 0.395 and a relative viability ([7]; first compound 2.53 µM) of 0.378. For the same molecule, the relative viability ([8]; first compound 0.08 µM) was 0.48, the relative viability ([8]; first compound 0.253 µM) was 0.406 and the relative viability ([8]; first compound 0.8 µM) was 0.527. It also gave a relative viability ([8]; first compound 2.53 µM) of 0.435, a relative viability ([9]; first compound 0.08 µM) of 0.516 and a relative viability ([9]; first compound 0.253 µM) of 0.442. For the same molecule, the relative viability ([9]; first compound 0.8 µM) was 0.461, the relative viability ([9]; first compound 2.53 µM) was 0.43 and the relative viability ([10]; first compound 0.08 µM) was 1.01. It also gave a relative viability ([10]; first compound 0.253 µM) of 0.955, a relative viability ([10]; first compound 0.8 µM) of 0.873 and a relative viability ([10]; first compound 2.53 µM) of 0.96. It also gave a relative viability ([11]; first compound 0.08 µM) of 0.774, a relative viability ([11]; first compound 0.253 µM) of 0.739 and a relative viability ([11]; first compound 0.8 µM) of 0.814. The relative viability ([11]; first compound 2.53 µM) was 0.783, the relative viability ([12]; first compound 0.08 µM) was 0.756 and the relative viability ([12]; first compound 0.253 µM) was 0.717. It also gave a relative viability ([12]; first compound 0.8 µM) of 0.647, a relative viability ([12]; first compound 2.53 µM) of 0.781 and a relative viability ([13]; first compound 0.08 µM) of 0.275. The relative viability ([13]; first compound 0.253 µM) was 0.234, the relative viability ([13]; first compound 0.8 µM) was 0.257 and the relative viability ([13]; first compound 2.53 µM) was 0.246. For the same molecule, the relative viability ([14]; first compound 0.08 µM) was 0.763, the relative viability ([14]; first compound 0.253 µM) was 0.667 and the relative viability ([14]; first compound 0.8 µM) was 0.687. For the same molecule, the relative viability ([14]; first compound 2.53 µM) was 0.817, the relative viability ([15]; first compound 0.08 µM) was 0.53 and the relative viability ([15]; first compound 0.253 µM) was 0.533. It also gave a relative viability ([15]; first compound 0.8 µM) of 0.557, a relative viability ([15]; first compound 2.53 µM) of 0.478 and a relative viability ([16]; first compound 0.08 µM) of 0.525. It also gave a relative viability ([16]; first compound 0.253 µM) of 0.525, a relative viability ([16]; first compound 0.8 µM) of 0.465 and a relative viability ([16]; first compound 2.53 µM) of 0.474. The relative viability ([17]; first compound 0.08 µM) was 0.603, the relative viability ([17]; first compound 0.253 µM) was 0.456 and the relative viability ([17]; first compound 0.8 µM) was 0.603. The relative viability ([17]; first compound 2.53 µM) was 0.54, the relative viability ([18]; first compound 0.08 µM) was 0.601 and the relative viability ([18]; first compound 0.253 µM) was 0.547. It also gave a relative viability ([18]; first compound 0.8 µM) of 0.621, a relative viability ([18]; first compound 2.53 µM) of 0.769 and a relative viability ([19]; first compound 0.08 µM) of 0.0937. It also gave a relative viability ([19]; first compound 0.253 µM) of 0.23, a relative viability ([19]; first compound 0.8 µM) of 0.198 and a relative viability ([19]; first compound 2.53 µM) of 0.195. The relative viability ([20]; first compound 0.08 µM) was 0.311, the relative viability ([20]; first compound 0.253 µM) was 0.262 and the relative viability ([20]; first compound 0.8 µM) was 0.293. The relative viability ([20]; first compound 2.53 µM) was 0.299.

Work on `COc1nc(C)cnc1NS(=O)(=O)c1cccnc1-c1ccc(-c2nnco2)cc1` [Zibotentan] + Cc1nc(NC(=O)N2CCC[C@H]2C(N)=O)sc1-c1ccnc(C(C)(C)C(F)(F)F)c1 [Alpelisib] (partner 2 µM) yielded a relative viability ([1]; first compound 0.08 µM) of 0.865, a relative viability ([1]; first compound 0.253 µM) of 0.898 and a relative viability ([1]; first compound 0.8 µM) of 0.826. The relative viability ([1]; first compound 2.53 µM) was 0.83, the relative viability ([2]; first compound 0.08 µM) was 0.887 and the relative viability ([2]; first compound 0.253 µM) was 0.911. It also gave a relative viability ([2]; first compound 0.8 µM) of 0.937, a relative viability ([2]; first compound 2.53 µM) of 0.94 and a relative viability ([3]; first compound 0.08 µM) of 1.01. It also gave a relative viability ([3]; first compound 0.253 µM) of 1.03, a relative viability ([3]; first compound 0.8 µM) of 1.12 and a relative viability ([3]; first compound 2.53 µM) of 0.911. For the same molecule, the relative viability ([4]; first compound 0.08 µM) was 1.08, the relative viability ([4]; first compound 0.253 µM) was 1.14 and the relative viability ([4]; first compound 0.8 µM) was 1.09. It also gave a relative viability ([4]; first compound 2.53 µM) of 1.08, a relative viability ([5]; first compound 0.08 µM) of 1.29 and a relative viability ([5]; first compound 0.253 µM) of 0.92. It also gave a relative viability ([5]; first compound 0.8 µM) of 1.28, a relative viability ([5]; first compound 2.53 µM) of 1.24 and a relative viability ([6]; first compound 0.08 µM) of 0.66. For the same molecule, the relative viability ([6]; first compound 0.253 µM) was 0.652, the relative viability ([6]; first compound 0.8 µM) was 0.59 and the relative viability ([6]; first compound 2.53 µM) was 0.873. For the same molecule, the relative viability ([7]; first compound 0.08 µM) was 1, the relative viability ([7]; first compound 0.8 µM) was 0.891 and the relative viability ([7]; first compound 2.53 µM) was 0.848. It also gave a relative viability ([8]; first compound 0.08 µM) of 0.852, a relative viability ([8]; first compound 0.253 µM) of 0.869 and a relative viability ([8]; first compound 0.8 µM) of 0.92. For the same molecule, the relative viability ([8]; first compound 2.53 µM) was 1.03, the relative viability ([9]; first compound 0.08 µM) was 0.794 and the relative viability ([9]; first compound 0.253 µM) was 0.726. The relative viability ([9]; first compound 0.8 µM) was 0.681, the relative viability ([9]; first compound 2.53 µM) was 0.686 and the relative viability ([10]; first compound 0.08 µM) was 1.14. For the same molecule, the relative viability ([10]; first compound 0.253 µM) was 1.1, the relative viability ([10]; first compound 0.8 µM) was 1.09 and the relative viability ([10]; first compound 2.53 µM) was 1.03. The relative viability ([11]; first compound 0.08 µM) was 1.03, the relative viability ([11]; first compound 0.253 µM) was 1.04 and the relative viability ([11]; first compound 0.8 µM) was 1.11. It also gave a relative viability ([11]; first compound 2.53 µM) of 1.09, a relative viability ([12]; first compound 0.08 µM) of 1.01 and a relative viability ([12]; first compound 0.253 µM) of 1.06. The relative viability ([12]; first compound 0.8 µM) was 1.05, the relative viability ([12]; first compound 2.53 µM) was 1.04 and the relative viability ([13]; first compound 0.08 µM) was 0.621. It also gave a relative viability ([13]; first compound 0.253 µM) of 0.58, a relative viability ([13]; first compound 0.8 µM) of 0.559 and a relative viability ([13]; first compound 2.53 µM) of 0.648. The relative viability ([14]; first compound 0.08 µM) was 0.954, the relative viability ([14]; first compound 0.253 µM) was 0.884 and the relative viability ([14]; first compound 0.8 µM) was 0.869. For the same molecule, the relative viability ([14]; first compound 2.53 µM) was 0.844, the relative viability ([15]; first compound 0.08 µM) was 0.726 and the relative viability ([15]; first compound 0.253 µM) was 0.639. The relative viability ([15]; first compound 0.8 µM) was 0.775, the relative viability ([15]; first compound 2.53 µM) was 0.758 and the relative viability ([16]; first compound 0.08 µM) was 0.827. It also gave a relative viability ([16]; first compound 0.253 µM) of 0.755, a relative viability ([16]; first compound 0.8 µM) of 0.726 and a relative viability ([16]; first compound 2.53 µM) of 0.762. The relative viability ([17]; first compound 0.08 µM) was 1.08, the relative viability ([17]; first compound 0.253 µM) was 0.629 and the relative viability ([17]; first compound 0.8 µM) was 1.12. It also gave a relative viability ([17]; first compound 2.53 µM) of 0.907, a relative viability ([18]; first compound 0.08 µM) of 1.15 and a relative viability ([18]; first compound 0.253 µM) of 1.04. It also gave a relative viability ([18]; first compound 0.8 µM) of 1.09, a relative viability ([18]; first compound 2.53 µM) of 1.08 and a relative viability ([19]; first compound 0.08 µM) of 0.342. For the same molecule, the relative viability ([19]; first compound 0.253 µM) was 0.342, the relative viability ([19]; first compound 0.8 µM) was 0.23 and the relative viability ([19]; first compound 2.53 µM) was 0.374. The relative viability ([20]; first compound 0.08 µM) was 0.635, the relative viability ([20]; first compound 0.253 µM) was 0.548 and the relative viability ([20]; first compound 0.8 µM) was 0.642. For the same molecule, the relative viability ([20]; first compound 2.53 µM) was 0.585.
